Columns and labels:
[1] = tested on: gout-like disturbance of the purine metabolism; assay: 3-day cycle in the oxonate rat (uric acid in urine on days 1-3 and in serum on day 3); assay type: in vivo, white male Wistar rats; conditions: for Serum Uric acid conc.: third day, * statistically significant p < 0.05 (Duncan test)
Protocol: (§1) The uricosuric and hypouricemic effects were observed by way of experiment on the oxonate rat. In this experimental test arrangement the uricase activity of the rat liver was inhibited by the administration of potassium oxonate, thus producing a gout-like disturbance of the purine metabolism. The effect was tested in the following test arrangement:
2. The influence on the gout-like metabolism disturbance which had been induced by way of experiment was also examined in a 3-day cycle. For this purpose, the animals (white male Wistar rats) were placed into the metabolism cages 18 hours prior to the start of the experiment. The animals drank water, and they were offered a special fodder mixture to consume ad libitum. The composition of the fodder mixture was as follows: 5 % of fructose, 3% of uric acid, 2 % of potassium oxonate, and 100 mg of synthetic sweetening agent (acesulfame) per 1 kg of body weight. On the first and second days of the experiment, the compositions were administered to the animals, in a 0.5 % potassium-oxanate solution, into the stomach by way of an esophagal sound. The urine samples were examined on the first, second and third days of the experiment, and the serum samples were tested for their uric acid content on the third day of the experiment.
In Table 4 the results following the application of allopurinol (as comparative substance) have been indicated in the above-mentioned experimental scheme.

[2] = tested on: gout-like disturbance of the purine metabolism; assay: 24-hour test in the oxonate rat (uric acid, urine volume, pH and Na+ after potassium oxonate); assay type: in vivo, male Wistar rats; conditions: for Uric acid serum (-x (mg %) ± SD): control 5.41 + 0.66, * statistically significant (U test); for Activity in words (heading of Table 2): Example 14 combined with the increase of diuresis and the excretion of sodium
Protocol: as §1
1. The influence on the gout-like disturbance of the purine metabolism which had been induced by way of experiment was tested in a 24 hour test. In this test arrangement, the animals are given the substances in a 0.5 % potassium-oxonate solution into the stomach by means of an esophagal sound, after water and fodder had been withheld for 18 hours. During the entire test period, the animals are given the 0.5 % potassium-oxonate solution ad libitum. After 8 hours, they are additionally given 5 ml of water per 100 g of body weight into the stomach, by way of an esophagal sound. After 24 hours urine samples were taken, the animals were killed in a narcosis produced by ether, and the blood and urine were analysed for the content of uric acid. In addition, the creatinine concentration, the sodium, potassium and chloride concentration in the urine and serum samples were determined.

[3] = Table 3, 3 mg/kg, 1st day, oxonate control 3.38
[4] = Table 3, 3 mg/kg, 1st day, oxonate control 42.5
[5] = Table 3, 3 mg/kg, 2nd day, oxonate control 3.83
[6] = Table 3, 3 mg/kg, 2nd day, oxonate control 42.9
[7] = Table 3, 3 mg/kg, 3rd day, oxonate control 5.17
[8] = Table 3, 3 mg/kg, 3rd day, oxonate control 48.8
[9] = Table 3, 3 mg/kg, oxonate control 5.49
[10] = Table 2 II, 0.3 mg/kg, control = 100
[11] = Table 2 II, 3.0 mg/kg, control = 100
[12] = Table 2 I, 3 mg/kg, oxonate control group = 100

Oc1ncnc2[nH]ncc12 [Allo, Allopurinol, reference compound]
Urine Amount of uric acid ([1]; Table 4, 50 mg/kg, 1st day, oxonate control 0.80): 0.91 mg/24 h | Urine Uric acid conc. ([1]; Table 4, 50 mg/kg, 1st day, oxonate control 11.3): 11.6 mg % | Urine Amount of uric acid ([1]; Table 4, 50 mg/kg, 2nd day, oxonate control 2.6): 2.1 mg/24 h | Urine Uric acid conc. ([1]; Table 4, 50 mg/kg, 2nd day, oxonate control 23.9): 18.7 mg % | Urine Amount of uric acid ([1]; Table 4, 50 mg/kg, 3rd day, oxonate control 3.4): 3.8 mg/24 h | Urine Uric acid conc. ([1]; Table 4, 50 mg/kg, 3rd day, oxonate control 36.4): 31.6 mg % | Serum Uric acid conc. ([1]; Table 4, 50 mg/kg, oxonate control 6.7): 6.2 mg % | Urine Amount of uric acid ([1]; Table 4, 100 mg/kg, 1st day, oxonate control 0.80): 0.9 mg/24 h | Urine Uric acid conc. ([1]; Table 4, 100 mg/kg, 1st day, oxonate control 11.3): 12.7 mg % | Urine Amount of uric acid ([1]; Table 4, 100 mg/kg, 2nd day, oxonate control 2.6): 2.0 mg/24 h | Urine Uric acid conc. ([1]; Table 4, 100 mg/kg, 2nd day, oxonate control 23.9): 19.9 mg % | Urine Amount of uric acid ([1]; Table 4, 100 mg/kg, 3rd day, oxonate control 3.4): 3.7 mg/24 h | Urine Uric acid conc. ([1]; Table 4, 100 mg/kg, 3rd day, oxonate control 36.4): 28.2 mg % | Serum Uric acid conc. ([1]; Table 4, 100 mg/kg, oxonate control 6.7): 5.2 mg %

O=C(ON=CC(=C(Br)c1ccccc1)c1ccccc1)c1ccccc1 [Example 5, O-benzoyl-2-phenyl-3-bromo-cinnamic aldoxime]
Urine Amount of uric acid [1, 3]: 2.59 mg/24 h | Urine Uric acid conc. [1, 4]: 38.9 mg % | Urine Amount of uric acid [1, 5]: 2.41 mg/24 h | Urine Uric acid conc. [1, 6]: 32.4 mg % | Urine Amount of uric acid [1, 7]: 3.68 mg/24 h | Urine Uric acid conc. [1, 8]: 34.7 mg % | Serum Uric acid conc. [1, 9]: 4.07 mg %

CC(=O)ON=CC(=C(Br)c1ccccc1)c1ccccc1 [Example 6, O-acetyl-2-phenyl-3-bromo-cinnamic aldoxime]
Urine Amount of uric acid [1, 3]: 2.40 mg/24 h | Urine Uric acid conc. [1, 4]: 33.4 mg % | Urine Amount of uric acid [1, 5]: 2.96 mg/24 h | Urine Uric acid conc. [1, 6]: 32.8 mg % | Urine Amount of uric acid [1, 7]: 2.98 mg/24 h | Urine Uric acid conc. [1, 8]: 32.7 mg % | Serum Uric acid conc. [1, 9]: 3.65 mg %

CCCCCCCCCC(=O)ON=CC(=C(Br)c1ccccc1)c1ccccc1 [Example 7, O-caprinoyl-2-phenyl-3-bromo-cinnamic aldoxime]
Urine Amount of uric acid [1, 3]: 2.78 mg/24 h | Urine Uric acid conc. [1, 4]: 36.4 mg % | Urine Amount of uric acid [1, 5]: 2.99 mg/24 h | Urine Uric acid conc. [1, 6]: 31.8 mg % | Urine Amount of uric acid [1, 7]: 2.74 mg/24 h | Urine Uric acid conc. [1, 8]: 31.2 mg % | Serum Uric acid conc. [1, 9]: 4.03 mg %

CCCCCCCCCC(=O)ON=CC(=C(Cl)c1ccc(OC)cc1)c1ccc(OC)cc1 [Example 8, O-caprinoyl-2-(4-methoxyphenyl)-3-chloro-p-methoxy-cinnamic aldoxime]
Uric acid excretion (-x ± SD) ([2]; Table 2 II, 0.3 mg/kg, control 2.74 + 1.43): 3.25 + 1.68 mg/24 hr./100 g b. wt. | Uric acid serum (-x (mg %) ± SD) ([2]; Table 2 II, 0.3 mg/kg): 5.00 + 0.54 mg % | Uric acid excretion, % control [2, 10]: 118 % control | Uric acid serum, % control [2, 10]: 92 % control | Uric acid excretion (-x ± SD) ([2]; Table 2 II, 3.0 mg/kg, control 2.74 + 1.43): 2.46 + 1.19 mg/24 hr./100 g b. wt. | Uric acid serum (-x (mg %) ± SD) ([2]; Table 2 II, 3.0 mg/kg): 4.81 + 0.74 mg % | Uric acid excretion, % control [2, 11]: 89 % control | Uric acid serum, % control [2, 11]: 88 % control | Activity in words (heading of Table 2) ([2]; oxonate rat): uricosuric and hypouricemic activity

O=C(Nc1ccccc1)ON=CC(=C(Br)c1ccccc1)c1ccccc1 [Example 14, 2-phenyl-3-bromo-cinnamic aldoxime-O-(N-phenyl)-carbamate]
Amount of urine Na+ ([2]; Table 2 I, 3 mg/kg, control 0.09 + 0.03): 0.11 + 0.02 mg/24 hr/100 g b. wt. | Amount of urine excreted (-x + SD) ([2]; Table 2 I, 3 mg/kg, control 7.1 + 2.1): 9.3 + 3.06 ml/24 hr./100 g b. wt. | urine pH ([2]; Table 2 I, 3 mg/kg, control 7.5 + 0.2, * statistically significant (Scheffe test)): 7.2 + 0.08 | Amount of urine excreted, % control [2, 12]: 130 % control | Uric acid excretion, % control [2, 12]: 118 % control | Uric acid excretion (-x ± SD) ([2]; Table 2 I, oxonate rat, 3 mg/kg, into the stomach): 3.52 ± 1.11 mg/24 hr./100 g b. wt. | Activity in words (heading of Table 2) ([2]; oxonate rat): uricosuric activity
